Some test systems named below: SW-620 colon; DU-145 prostate; SK-MEL-5 melanoma; MOLT-4 leukemia; SF-539 CNS; UO-31 renal; EKVX NSCLC; HOP-62 NSCLC; CCRF-CEM leukemia; A549 NSCLC.
Test in all cases: NCI anticancer screen, dose series, 48 h

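Cells were grown in 96-well plates and exposed to each compound for 48 hours at five concentrations; endpoints were interpolated linearly between bracketing concentrations, or set to the highest concentration if not reached. GI50 is the concentration that inhibits growth by half. Definition used: TGI = concentration required for complete inhibition of growth.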 Some results are limits rather than exact numbers.

On to `CCCCNC(=O)Oc1ccc(/C(=C(/C)Cc2ccc(OC)cc2)c2ccc(OCCN3CCCC3)cc2)cc1`, for which the GI50 was 1.78 µM with SW-620 colon; 2.29 µM in the assay with DU-145 prostate; 1.66 µM in the assay on SK-MEL-5 melanoma; 1.98 µM with MOLT-4 leukemia; 1.75 µM in the assay with SF-539 CNS; 1.65 µM with UO-31 renal. The GI50 was 1.86 µM with EKVX NSCLC, 2.65 µM with HOP-62 NSCLC, 2.57 µM in the assay on CCRF-CEM leukemia and 1.95 µM in the assay with A549 NSCLC. In addition, the TGI came out at 3.36 µM in the assay on SW-620 colon; 5.44 µM with DU-145 prostate; 3.17 µM in the assay on SK-MEL-5 melanoma; 7.72 µM in the assay on MOLT-4 leukemia; 3.32 µM with SF-539 CNS; 3.22 µM with UO-31 renal. Besides, the TGI in the assay on EKVX NSCLC was 5.5 µM; in the assay on HOP-62 NSCLC, 11.3 µM; with CCRF-CEM leukemia, 7.41 µM; with A549 NSCLC, 3.8 µM.

As to `c1cncc(C2Nc3cccc4cccc(c34)N2)c1`, the GI50 in the assay with SW-620 colon was 18.4 µM; in the assay with DU-145 prostate, greater than 100 µM; in the assay on SK-MEL-5 melanoma, 66.3 µM; with MOLT-4 leukemia, 42.5 µM; in the assay on SF-539 CNS, 39 µM; in the assay with UO-31 renal, 11.7 µM. In addition, the GI50 is 36 µM in the assay with EKVX NSCLC, 42.5 µM with HOP-62 NSCLC, 22.6 µM with CCRF-CEM leukemia and 38.8 µM in the assay with A549 NSCLC. Also, the TGI in the assay on SW-620 colon was 36.3 µM; in the assay on DU-145 prostate, greater than 100 µM; in the assay on SK-MEL-5 melanoma it was greater than 100 µM; with MOLT-4 leukemia, greater than 100 µM; with SF-539 CNS, greater than 100 µM; in the assay with UO-31 renal, 27.4 µM. Moreover, the TGI in the assay with EKVX NSCLC, in the assay on HOP-62 NSCLC, with CCRF-CEM leukemia and with A549 NSCLC was greater than 100 µM each time.

With `Cc1ccc(C2=C(c3ccc(C)cc3)C3(c4ccc(C)cc4)C4C(=O)c5ccccc5C(=O)C4C2(c2ccc(C)cc2)S3=O)cc1` (stereo not drawn), the GI50 in the assay on SW-620 colon, in the assay on DU-145 prostate, in the assay with SK-MEL-5 melanoma, in the assay on MOLT-4 leukemia, in the assay on SF-539 CNS and with UO-31 renal was greater than 100 µM each time. In addition, the GI50 in the assay on EKVX NSCLC was greater than 100 µM; in the assay with HOP-62 NSCLC it was 73.7 µM; in the assay on CCRF-CEM leukemia it was greater than 100 µM; in the assay with A549 NSCLC, greater than 100 µM. The TGI with SW-620 colon, in the assay on DU-145 prostate, with SK-MEL-5 melanoma, in the assay on MOLT-4 leukemia, in the assay on SF-539 CNS and with UO-31 renal was greater than 100 µM in each case. Moreover, the TGI with EKVX NSCLC, in the assay on HOP-62 NSCLC, in the assay with CCRF-CEM leukemia and with A549 NSCLC was greater than 100 µM each time.

Take `COC(=O)/C=C1/SC(N2N=C(c3cccs3)CC2c2ccc(F)cc2)=NC1=O` (stereo not drawn): the GI50 is 2.16 µM in the assay on SW-620 colon; 2.12 µM in the assay with DU-145 prostate; 1.78 µM with SK-MEL-5 melanoma; 2.65 µM with MOLT-4 leukemia; 1.86 µM in the assay with SF-539 CNS; 1.49 µM in the assay with UO-31 renal. The GI50 in the assay on EKVX NSCLC was 3.49 µM; in the assay on HOP-62 NSCLC, 1.87 µM; in the assay with CCRF-CEM leukemia it was 3 µM; in the assay with A549 NSCLC, 4.1 µM. For the same molecule, the TGI in the assay with SW-620 colon stood at 5 µM; in the assay with DU-145 prostate, 4.75 µM; in the assay on SK-MEL-5 melanoma it was 3.36 µM; in the assay with MOLT-4 leukemia, 7.25 µM; with SF-539 CNS, 3.39 µM; in the assay on UO-31 renal it was 2.9 µM. Besides, the TGI with EKVX NSCLC was 23.6 µM; with HOP-62 NSCLC, 4.29 µM; in the assay with CCRF-CEM leukemia, 8.73 µM; in the assay with A549 NSCLC, 20.6 µM.

As to `C/C(=N\NC(=S)N1CC2CCC(CC2)C1)c1cccc(C)n1`, the GI50 was 0.383 µM in the assay on SW-620 colon; 0.378 µM with DU-145 prostate; 0.287 µM with SK-MEL-5 melanoma; less than 0.0001 µM in the assay with MOLT-4 leukemia; 0.464 µM in the assay on SF-539 CNS; 0.326 µM in the assay with EKVX NSCLC. Also, the figures for the GI50 with HOP-62 NSCLC, in the assay on CCRF-CEM leukemia and in the assay on A549 NSCLC were 0.397 µM, 0.000124 µM and 0.248 µM, respectively. The TGI in the assay with SW-620 colon stood at 31.8 µM; in the assay with DU-145 prostate it was 7.1 µM; in the assay with SK-MEL-5 melanoma, 13.7 µM; in the assay with MOLT-4 leukemia, 0.00764 µM; in the assay on SF-539 CNS it was 2.58 µM; in the assay on UO-31 renal, 4.94 µM. Moreover, the TGI with EKVX NSCLC was determined as 4.63 µM; in the assay with HOP-62 NSCLC it was 14.2 µM; with A549 NSCLC, 12.9 µM.

Consider `Nc1nc(N)c2c(n1)NC(c1ccccc1)C1CCc3ccccc3C1=N2` (stereo not drawn), for which the GI50 was 6.3 µM in the assay on SW-620 colon; 4.38 µM in the assay on DU-145 prostate; 0.638 µM in the assay on SK-MEL-5 melanoma; 2.7 µM with MOLT-4 leukemia; 5.81 µM in the assay on SF-539 CNS; 2.5 µM in the assay with UO-31 renal. Moreover, the GI50 in the assay on EKVX NSCLC was 2.68 µM; in the assay with HOP-62 NSCLC it was 7.87 µM; with CCRF-CEM leukemia, 4.47 µM; in the assay on A549 NSCLC it was 7.11 µM. Moreover, the TGI is 20.7 µM with SW-620 colon; 17.1 µM with DU-145 prostate; 2.25 µM with SK-MEL-5 melanoma; 14.7 µM in the assay on MOLT-4 leukemia; 18.8 µM with SF-539 CNS; 13.7 µM in the assay with UO-31 renal. The TGI with EKVX NSCLC is 15.1 µM; in the assay with HOP-62 NSCLC, 21.3 µM; in the assay on CCRF-CEM leukemia it was greater than 100 µM; in the assay with A549 NSCLC, 26 µM.

Regarding `N#Cc1c(N)nc(N)nc1N[C@H](c1nc2c(F)ccc(Cl)c2c(=O)n1-c1cccnc1)C1CC1`, the GI50 was 11.1 µM in the assay on SW-620 colon; 11 µM in the assay on DU-145 prostate; 8.33 µM in the assay with SK-MEL-5 melanoma; 3.33 µM in the assay on MOLT-4 leukemia; 3.83 µM in the assay with SF-539 CNS; 2.34 µM with UO-31 renal. Moreover, the GI50 in the assay on EKVX NSCLC is 1.88 µM; in the assay on HOP-62 NSCLC it was 3.62 µM; with CCRF-CEM leukemia, 7.35 µM; with A549 NSCLC it was 6.22 µM. In addition, the TGI in the assay with SW-620 colon was greater than 100 µM; with DU-145 prostate, greater than 100 µM; in the assay with SK-MEL-5 melanoma, 21.9 µM; in the assay with MOLT-4 leukemia it was 28.8 µM; in the assay with SF-539 CNS, 21 µM; in the assay with UO-31 renal it was 21.1 µM. Moreover, the TGI was 37.2 µM in the assay with EKVX NSCLC, greater than 100 µM with HOP-62 NSCLC, 95.1 µM in the assay with CCRF-CEM leukemia and 21.2 µM in the assay on A549 NSCLC.

For the origin of these results see PubChem BioAssay (NCI).
